The record followed here is patent US20250049776A1, “AUTOPHAGY INDUCING COMPOUNDS AND USES THEREOF, IN PARTICULAR FOR A SYSTEMIC TREATMENT OF DISEASES AND CONDITIONS” (Samsara Therapeutics Inc., priority 2021, published 2025).

Where a name gives a salt, the structure may show the parent alone.

For the data set, the system named is C3-PMP22 transgenic mice (B6.Cg-Tg(PMP22)C3Fbas/J). Put plainly: Mouse model of Charcot-Marie-Tooth 1A (CMT1A). The class given is in vivo. The source says: Compound 163 was selected as an example compound of this invention to be evaluated in this model. This model (run by In vivex SAS, France) uses C3-PMP22 transgenic mice (B6·Cg-Tg(PMP22)C3Fbas/J) which express three copies of a wild-type human peripheral myelin protein 22 (PMP22) gene. These mice present an age-dependent demyelinating neuropathy characterized by predominantly distal loss of strength and sensation. C3-PMP mice show no overt clinical signs at 3 weeks and develop mild neuromuscular impairment in an age-dependent manner. They have stable, low nerve conduction velocities similar to adults with human CMT1A. Myelination is delayed in these mice, and they contain reduced numbers of myelinated fibres at 3 weeks of age.
• Animal characteristics: • Sex/Species/Strain: B6.Cg-Tg(PMP22)C3Fbas/JMale • Age: 3 weeks old • Supplier: Jackson Laboratory (USA) • Approximate weight at initiation of treatment: 19.0 g±2.5 g • Animal number: 6 mice per group • Animal identification: At the beginning of the study, animals were identified with a number on the tail. […] Clinical signs and mortality were recorded daily. Body weight was determined twice a week. • Study Outline: • Dose: 30 mg/kg • Administration: Oral gavage • Readouts: • i) Rotarod (neuromuscular performance) • ii) Sciatic nerve electrophysiology (EMG) • iii) PMP22 analysis by western blot • iv) Histology of sciatic nerve • Experimental time duration: Readouts measures at 1 and 2 months old. • Baseline rotarod and EMG readouts at 1 month old • Rotarod and EMG readouts at 2 months old • Western blot for PMP22 and histopathology of sciatic nerve at 2 months old • Vehicle used for test Compound 163: 10% DMSO/5% Cremophor R H 40 and 85% of 10% HP-β-CD in water (v/v) • Vehicle control group: vehicle only (non-treated control) • Statistics: Statistical analyses were performed using Prism software. A probability less than 5% (p<0.05) was considered as significant.
Sciatic nerve electrophysiology. Electromyography was performed on mice anesthetized with ketamine/xylazine mixture. A pair of steel needle electrodes (AD Instruments, MLA1302) were placed subcutaneously along the nerve at the sciatic notch (proximal stimulation). A second pair of electrodes were placed along the tibial nerve above the ankle (distal stimulation). Supramaximal square-wave pulses, lasting 10 ms at 1 mA were delivered using a PowerLab 26T (AD Instruments). Compound muscle action potential (CMAP) was recorded from the intrinsic foot muscles using steel electrodes. Both amplitudes and latencies of CMAP were determined. The distance between the 2 sites of stimulation was measured alongside the skin surface with fully extended legs, and nerve conduction velocities (NCVs) were calculated automatically from sciatic nerve latency measurements using Excel.
Rotarod. A rotating rod apparatus (Bioseb, France) was used to measure neuromuscular coordination and balance. Mice were first given a pretraining trial to familiarize them with the rotating rod. […] Each animal underwent 3 trials a day. For each day, values from the 3 trials were averaged for each animal, and then averaged for each group.
After electrophysiology analysis and animal sacrifice, the left sciatic nerve of all animals were sampled, solubilized in 4° C. RIPA lysis buffer completed with protease inhibitors (Fisher Scientific, France), sonicated three times during 10 s on ice (Microson ultrasonic cell disruptorXL, Microsonic) and centrifuged for 30 min at 10,000 rpm at 4° C. 50 μL of the supernatant was sampled and total protein was quantified by NanoDrop using bovine serum albumin dilutions as standard. Then, ten micrograms of protein samples were denatured using Laemmli/β-mercaptoethanol (Merck, S3401) incubation at 95° C. during 10 minutes, separated on a denaturing 10% SDS-polyacrylamide gel and transferred onto nitrocellulose membranes. Membranes were blocked for 60 min with 5 mL of Licor Blocking Buffer. […]

The mark [1] stands for this setting: CMT1A mice at 2 months old, 30 mg/kg oral gavage twice a day during one month.
[2] abbreviates: sciatic nerve histology, CMT1A mice at 2 months old, 30 mg/kg oral gavage twice a day.

As to `CC(C)N(C(=O)c1csc(-c2cnn(-c3ccccc3)c2)n1)C1CCNCC1` [Compound 163, N-isopropyl-2-(1-phenyl-1H-pyrazol-4-yl)-N-(piperidin-4-yl)thiazole-4-carboxamide hydrochloride], under setting [1], the “increase in CMAP amplitude compared to the vehicle group” value is on record as 86% and the “increase in mean rotarod latency compared to the vehicle group” value was 133%. Besides, the “increase in NCV compared to the vehicle group” value (CMT1A mice at 2 months old, 30 mg/kg oral gavage twice a day, not statistically significant) came to 94%. Besides, under “CMT1A mice, 30 mg/kg oral gavage twice a day”, the “differences on body weight between groups” value is reported as “No significant differences”. Also, under setting [2], the “decrease in the g-ratio compared to the vehicle group” value is given as 22% and the “increase in the number of myelinating axons compared to the vehicle group” value came to 64%. In addition, the “increase in the axonal diameter compared to the vehicle group” value (sciatic nerve histology, CMT1A mice at 2 months old, 30 mg/kg oral gavage twice a day, not statistically significant) is on record as 45%. Besides, the “decrease in the level of PMP22 compared to the vehicle group” value (sciatic nerve western blot, CMT1A mice at 2 months old, 30 mg/kg oral gavage twice a day) is 33%.
